Assay results reported in US20230148214A1, “INDAZOLES AND AZAINDAZOLES AS LRRK2 INHIBITORS” (ESCAPE Bio, Inc., priority 2020, published 2023).

Experiments:
LRRK2 G2019S = target: T1, LRRK2 G2019S (Homo sapiens, UniProt Q5S007, G2019S); experiment: LRRK2 Kinase Activity Assay (LanthaScreen TR-FRET), G2019S; type: biochemical; conditions: recombinant G2019S-LRRK2, 25 μM ATP, 400 nM LRRKtide, 60 min; class symbols
T1 construct: purchased Life Technologies PV4881
In short: (§1)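 Recombinant wild-type or G2019S LRRK2 incubated with fluorescein-labeled LRRKtide (ERM-based) peptide, ATP and serially diluted compound for 60 min at room temperature.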

LRRK2 WT = target: T2, LRRK2 WT (Homo sapiens, UniProt Q5S007); experiment: LRRK2 Kinase Activity Assay (LanthaScreen TR-FRET), wild type; type: biochemical; conditions: recombinant wild type LRRK2, 25 μM ATP, 400 nM LRRKtide, 60 min; class symbols
T2 construct: purchased Life Technologies PR8604B
In short: as §1

T1 sequence (Q5S007 whole entry G2019S): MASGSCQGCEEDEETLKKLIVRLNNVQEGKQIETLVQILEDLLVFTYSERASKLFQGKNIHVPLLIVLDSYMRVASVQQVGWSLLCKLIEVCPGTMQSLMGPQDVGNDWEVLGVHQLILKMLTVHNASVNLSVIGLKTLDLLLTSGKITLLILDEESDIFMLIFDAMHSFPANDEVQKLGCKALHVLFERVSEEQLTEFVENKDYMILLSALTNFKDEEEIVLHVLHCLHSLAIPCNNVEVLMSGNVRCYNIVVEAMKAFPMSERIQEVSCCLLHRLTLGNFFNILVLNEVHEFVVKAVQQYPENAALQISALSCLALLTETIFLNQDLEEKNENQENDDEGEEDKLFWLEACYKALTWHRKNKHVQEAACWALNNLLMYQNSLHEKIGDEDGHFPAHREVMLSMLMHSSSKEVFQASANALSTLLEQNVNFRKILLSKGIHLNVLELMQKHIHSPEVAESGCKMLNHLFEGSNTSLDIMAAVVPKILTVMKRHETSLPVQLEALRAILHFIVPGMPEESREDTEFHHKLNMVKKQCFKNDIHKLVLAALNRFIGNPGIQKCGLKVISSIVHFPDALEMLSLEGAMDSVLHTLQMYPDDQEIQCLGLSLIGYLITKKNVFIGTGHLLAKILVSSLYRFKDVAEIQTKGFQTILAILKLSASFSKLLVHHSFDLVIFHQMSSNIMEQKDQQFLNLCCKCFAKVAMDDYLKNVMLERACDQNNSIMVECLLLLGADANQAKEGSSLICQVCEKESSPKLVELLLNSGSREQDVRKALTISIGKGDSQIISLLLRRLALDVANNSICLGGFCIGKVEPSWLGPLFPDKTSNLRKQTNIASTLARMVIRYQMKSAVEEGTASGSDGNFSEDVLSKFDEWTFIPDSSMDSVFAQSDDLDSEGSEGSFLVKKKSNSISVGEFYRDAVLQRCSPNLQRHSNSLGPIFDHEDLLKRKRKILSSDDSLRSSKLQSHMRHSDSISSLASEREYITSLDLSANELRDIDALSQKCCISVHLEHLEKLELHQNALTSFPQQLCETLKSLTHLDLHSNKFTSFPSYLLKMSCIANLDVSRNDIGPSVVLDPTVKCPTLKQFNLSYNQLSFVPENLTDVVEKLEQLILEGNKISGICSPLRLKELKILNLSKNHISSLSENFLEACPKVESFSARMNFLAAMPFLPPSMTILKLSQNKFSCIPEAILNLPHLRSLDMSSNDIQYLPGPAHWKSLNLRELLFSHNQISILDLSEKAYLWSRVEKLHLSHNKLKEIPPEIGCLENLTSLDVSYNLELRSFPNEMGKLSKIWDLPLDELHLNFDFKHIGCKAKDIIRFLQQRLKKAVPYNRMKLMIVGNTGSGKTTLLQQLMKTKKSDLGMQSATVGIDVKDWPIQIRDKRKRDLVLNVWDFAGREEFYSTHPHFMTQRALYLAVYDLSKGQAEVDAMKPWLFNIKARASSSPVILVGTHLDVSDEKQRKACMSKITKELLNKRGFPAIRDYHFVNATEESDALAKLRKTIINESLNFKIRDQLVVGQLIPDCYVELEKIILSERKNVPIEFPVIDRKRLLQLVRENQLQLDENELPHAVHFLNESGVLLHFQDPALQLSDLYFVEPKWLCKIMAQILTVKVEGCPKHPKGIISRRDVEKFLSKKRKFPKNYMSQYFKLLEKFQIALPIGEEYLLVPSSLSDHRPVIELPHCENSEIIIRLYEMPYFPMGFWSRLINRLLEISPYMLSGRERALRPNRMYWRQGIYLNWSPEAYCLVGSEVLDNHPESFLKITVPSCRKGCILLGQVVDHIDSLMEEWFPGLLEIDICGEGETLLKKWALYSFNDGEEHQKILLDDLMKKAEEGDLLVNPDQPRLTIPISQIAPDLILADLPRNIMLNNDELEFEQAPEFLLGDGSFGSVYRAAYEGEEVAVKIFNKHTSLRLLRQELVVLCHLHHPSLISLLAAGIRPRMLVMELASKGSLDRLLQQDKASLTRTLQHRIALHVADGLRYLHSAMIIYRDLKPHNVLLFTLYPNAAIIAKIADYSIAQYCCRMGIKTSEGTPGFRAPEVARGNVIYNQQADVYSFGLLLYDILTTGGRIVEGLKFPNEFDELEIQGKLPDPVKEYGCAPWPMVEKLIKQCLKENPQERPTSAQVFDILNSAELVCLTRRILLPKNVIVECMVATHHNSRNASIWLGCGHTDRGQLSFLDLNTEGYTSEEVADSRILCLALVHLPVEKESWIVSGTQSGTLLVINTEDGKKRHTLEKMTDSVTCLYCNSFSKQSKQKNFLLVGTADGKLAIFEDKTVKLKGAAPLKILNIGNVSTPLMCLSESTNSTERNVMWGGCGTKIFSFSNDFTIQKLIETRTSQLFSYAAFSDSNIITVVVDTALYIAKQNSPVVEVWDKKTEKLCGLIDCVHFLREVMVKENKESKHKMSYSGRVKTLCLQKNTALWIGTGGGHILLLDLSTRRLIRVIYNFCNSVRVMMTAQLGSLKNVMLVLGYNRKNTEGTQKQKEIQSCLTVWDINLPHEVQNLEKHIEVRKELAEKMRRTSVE
T2 sequence (Q5S007 whole entry): as the sequence (Q5S007 whole entry G2019S) above, with S2019G counted along it

Structure (SMILES)	IC50 (LRRK2 G2019S)	IC50 (LRRK2 WT)
COc1cc2c(cc1C#N)CCC[C@@H]2Nc1ccc2[nH]nc(-c3cnoc3)c2c1 (single isomer, unassigned) [Example 114, enantiomer 1, 5-((3-(Isoxazol-4-yl)-1H-indazol-5-yl)amino)-3-methoxy-5,6,7,8-tetrahydronaphthalene-2-carbonitrile]	100 to 1000 nM	100 to 1000 nM
N#Cc1cnc2c(c1)CCC[C@@H]2Nc1ccc2[nH]nc(Br)c2c1 (single isomer, unassigned) [Example 125, enantiomer 1, 8-((3-Bromo-1H-indazol-5-yl)amino)-5,6,7,8-tetrahydroquinoline-3-carbonitrile]	< 100 nM	100 to 1000 nM
N#Cc1cnc2c(c1)CCC[C@@H]2Nc1ccc2[nH]nc(Br)c2c1 (single isomer, unassigned) [Example 125, enantiomer 2, 8-((3-Bromo-1H-indazol-5-yl)amino)-5,6,7,8-tetrahydroquinoline-3-carbonitrile]	100 to 1000 nM	1000 to 10000 nM
N#Cc1cnc2c(c1)CCC[C@@H]2Nc1ccc2[nH]nc(Cl)c2c1 (single isomer, unassigned) [Example 126, enantiomer 1, 8-((3-Chloro-1H-indazol-5-yl)amino)-5,6,7,8-tetrahydroquinoline-3-carbonitrile]	1000 to 10000 nM	1000 to 10000 nM
N#Cc1cnc2c(c1)CCC[C@@H]2Nc1ccc2[nH]nc(Cl)c2c1 (single isomer, unassigned) [Example 126, enantiomer 2, 8-((3-Chloro-1H-indazol-5-yl)amino)-5,6,7,8-tetrahydroquinoline-3-carbonitrile]	< 100 nM	100 to 1000 nM
Cc1c(C#N)ccc2c1CC[C@@H]2Nc1ccc2[nH]nc(I)c2c1 (single isomer, unassigned) [Example 127, enantiomer 1, 1-((3-Iodo-1H-indazol-5-yl)amino)-4-methyl-2,3-dihydro-1H-indene-5-carbonitrile]	100 to 1000 nM	100 to 1000 nM
N#Cc1ccc2c(c1)CC[C@H]2Nc1ccc2[nH]nc(I)c2c1 (single isomer, unassigned) [Example 128, enantiomer 1, 1-((3-Iodo-1H-indazol-5-yl)amino)-2,3-dihydro-1H-indene-5-carbonitrile]	100 to 1000 nM	100 to 1000 nM
N#Cc1ccc2c(c1)CC[C@H]2Nc1ccc2[nH]nc(I)c2c1 (single isomer, unassigned) [Example 128, enantiomer 2, 1-((3-Iodo-1H-indazol-5-yl)amino)-2,3-dihydro-1H-indene-5-carbonitrile]	< 100 nM	100 to 1000 nM
Cc1n[nH]c2ccc(N[C@H]3CCc4c(C#N)cccc43)cc12 (single isomer, unassigned) [Example 129, enantiomer 1, 1-((3-Methyl-1H-indazol-5-yl)amino)-2,3-dihydro-1H-indene-4-carbonitrile]	100 to 1000 nM	1000 to 10000 nM
Cc1n[nH]c2ccc(N[C@H]3CCc4ccc(C#N)cc43)cc12 (single isomer, unassigned) [Example 130, enantiomer 1, 3-((3-Methyl-1H-indazol-5-yl)amino)-2,3-dihydro-1H-indene-5-carbonitrile]	100 to 1000 nM	1000 to 10000 nM
Cc1n[nH]c2ccc(N[C@H]3CCc4ccc(C#N)cc43)cc12 (single isomer, unassigned) [Example 130, enantiomer 2, 3-((3-Methyl-1H-indazol-5-yl)amino)-2,3-dihydro-1H-indene-5-carbonitrile]	< 100 nM	100 to 1000 nM
Cc1cc(C#N)cc2c1[C@@H](Nc1ccc3[nH]nc(-c4cnco4)c3c1)CC2 (single isomer, unassigned) [Example 131, enantiomer 1, 7-Methyl-1-((3-(oxazol-5-yl)-1H-indazol-5-yl)amino)-2,3-dihydro-1H-indene-5-carbonitrile]	< 100 nM	< 100 nM
N#Cc1cc(F)c2c(c1)CC[C@H]2Nc1ccc2[nH]nc(-c3cnco3)c2c1 (single isomer, unassigned) [Example 132, enantiomer 1, 5-((5-Cyano-7-fluoro-2,3-dihydro-1H-inden-1-yl)amino)-3-(oxazol-5-yl)-1H-indazol-2-ium]	< 100 nM	< 100 nM
N#Cc1ccc2c(n1)CCC[C@H]2Oc1ccc2[nH]nc(C3CC3)c2c1 (single isomer, unassigned) [Example 133, enantiomer 1, 5-((3-Cyclopropyl-1H-indazol-5-yl)oxy)-5,6,7,8-tetrahydroquinoline-2-carbonitrile]	100 to 1000 nM	1000 to 10000 nM
N#Cc1ccc2c(n1)CCC[C@H]2Oc1ccc2[nH]nc(C3CC3)c2c1 (single isomer, unassigned) [Example 133, enantiomer 2, 5-((3-Cyclopropyl-1H-indazol-5-yl)oxy)-5,6,7,8-tetrahydroquinoline-2-carbonitrile]	< 100 nM	1000 to 10000 nM
N#Cc1ccc2c(c1)CC[C@@H]2Nc1ccc2[nH]nc(C3CC3)c2c1 (single isomer, unassigned) [Example 134, enantiomer 1, 1-((3-Cyclopropyl-1H-indazol-5-yl)amino)-2,3-dihydro-1H-indene-5-carbonitrile]	100 to 1000 nM	1000 to 10000 nM

Second part, the compound after the results:

IC50 (LRRK2 G2019S)	IC50 (LRRK2 WT)	Structure (SMILES)
< 100 nM	100 to 1000 nM	N#Cc1cc2c(nc1Cl)[C@@H](Nc1ccc3[nH]nc(-c4cnco4)c3c1)CCC2 (single isomer, unassigned) [Example 112, enantiomer 1, 2-Chloro-8-((3-(oxazol-5-yl)-1H-indazol-5-yl)amino)-5,6,7,8-tetrahydroquinoline-3-carbonitrile]
< 100 nM	< 100 nM	COc1c(C#N)ccc2c1CC[C@@H]2Nc1ccc2[nH]nc(-c3cnco3)c2c1 (single isomer, unassigned) [Example 113, enantiomer 1, 4-Methoxy-1-((3-(oxazol-5-yl)-1H-indazol-5-yl)amino)-2,3-dihydro-1H-indene-5-carbonitrile]
< 100 nM	< 100 nM	COc1cc2c(cc1C#N)CCC[C@@H]2Nc1ccc2[nH]nc(-c3cnoc3)c2c1 (single isomer, unassigned) [Example 114, enantiomer 2, 5-((3-(Isoxazol-4-yl)-1H-indazol-5-yl)amino)-3-methoxy-5,6,7,8-tetrahydronaphthalene-2-carbonitrile]
< 100 nM	100 to 1000 nM	CC1(C)CC[C@H](Nc2ccc3[nH]nc(-c4cnco4)c3c2)c2ccc(C#N)cc21 (single isomer, unassigned) [Example 115, enantiomer 1, 8,8-Dimethyl-5-((3-(oxazol-5-yl)-1H-indazol-5-yl)amino)-5,6,7,8-tetrahydronaphthalene-2-carbonitrile]
< 100 nM	100 to 1000 nM	CC1(C)CC[C@H](Nc2ccc3[nH]nc(-c4cnco4)c3c2)c2ccc(C#N)cc21 (single isomer, unassigned) [Example 115, enantiomer 2, 8,8-Dimethyl-5-((3-(oxazol-5-yl)-1H-indazol-5-yl)amino)-5,6,7,8-tetrahydronaphthalene-2-carbonitrile]
< 100 nM	< 100 nM	CCc1cc(-c2n[nH]c3ccc(N[C@H]4CCCc5cc(C#N)ccc54)cc23)ccn1 (single isomer, unassigned) [Example 116, enantiomer 1, 5-((3-(2-Ethylpyridin-4-yl)-1H-indazol-5-yl)amino)-5,6,7,8-tetrahydronaphthalene-2-carbonitrile]
< 100 nM	< 100 nM	Cc1c(C#N)ccc2c1CC[C@H]2Nc1ccc2[nH]nc(-c3cnoc3)c2c1 (single isomer, unassigned) [Example 118, enantiomer 1, 1-((3-(Isoxazol-4-yl)-1H-indazol-5-yl)amino)-4-methyl-2,3-dihydro-1H-indene-5-carbonitrile]
< 100 nM	100 to 1000 nM	N#Cc1ccc2c(c1)CCC[C@H]2Nc1ccc2[nH]nc(-c3cnco3)c2c1 (single isomer, unassigned) [Example 119, enantiomer 1, 5-((3-(Oxazol-5-yl)-1H-indazol-5-yl)amino)-5,6,7,8-tetrahydronaphthalene-2-carbonitrile]
< 100 nM	< 100 nM	N#Cc1cnc2c(c1)CCC[C@H]2Nc1ccc2[nH]nc(-c3cnco3)c2c1 (single isomer, unassigned) [Example 120, enantiomer 1, 8-((3-(Oxazol-5-yl)-1H-indazol-5-yl)amino)-5,6,7,8-tetrahydroquinoline-3-carbonitrile]
< 100 nM	< 100 nM	CCc1cc(-c2n[nH]c3ccc(O[C@@H]4CCCc5cc(C#N)cnc54)cc23)ccn1 (single isomer, unassigned) [Example 121, enantiomer 1, 8-((3-(2-Ethylpyridin-4-yl)-1H-indazol-5-yl)oxy)-5,6,7,8-tetrahydroquinoline-3-carbonitrile]
< 100 nM	100 to 1000 nM	N#Cc1cc2c(cn1)[C@H](Oc1ccc3[nH]nc(-c4cnco4)c3c1)CCC2 (single isomer, unassigned) [Example 122, enantiomer 1, 8-((3-(Oxazol-5-yl)-1H-indazol-5-yl)oxy)-5,6,7,8-tetrahydroisoquinoline-3-carbonitrile]
< 100 nM	< 100 nM	COc1cc(-c2n[nH]c3ccc(O[C@H]4CCCc5cc(C#N)cnc54)cc23)ccn1 (single isomer, unassigned) [Example 123, enantiomer 1, 8-((3-(2-Methoxypyridin-4-yl)-1H-indazol-5-yl)oxy)-5,6,7,8-tetrahydroquinoline-3-carbonitrile]
< 100 nM	100 to 1000 nM	N#Cc1ccc2c(c1)CC[C@@H]2Oc1ccc2[nH]nc(C3CC3)c2c1 (single isomer, unassigned) [Example 124, enantiomer 1, 1-((3-Cyclopropyl-1H-indazol-5-yl)oxy)-2,3-dihydro-1H-indene-5-carbonitrile]
